Type in all cases: functional
The test system of assay [1] is Aggregatibacter actinomycetemcomitans. In words: Antibacterial activity against Actinobacillus actinomycetemcommitans ATCC 43717 after 1 to 2 days under anaerobic condition by serial dilution method.
Assay [2] relates to Actinomyces naeslundii. In words: Antibacterial activity against Actinomyces naeslundii ATCC 12104 after 1 to 2 days under anaerobic condition by serial dilution method.
Assay [3] relates to Streptococcus mutans. In words: Antibacterial activity against Streptococcus mutans ATCC 25175 after 1 to 2 days under anaerobic condition by serial dilution method.

This passage reports Activity and MIC results from ChEMBL document CHEMBL1157253, “ent-rosane and labdane diterpenoids from Sagittaria sagittifolia and their antibacterial activity against three oral pathogens” (2006).

Converted amounts (≈) assume the structure as drawn. The source made the active and inactive calls. The calls are words filed in the database; no cut-off is given here.

For the molecule `C=C[C@@]1(C)CC[C@@]2(C)[C@@H](CC=C3[C@@H]2CCC[C@]3(C)CO[C@@H]2O[C@@H](COC(C)=O)[C@H](OC(C)=O)[C@H]2O)C1`, the result in assay [1] was inactive.
Same read-out and setting: for `C=C[C@@]1(C)CC[C@@]2(C)[C@@H](CC[C@]3(O)[C@@H]2CCC[C@]3(C)C(=O)O)C1` the value was “inactive”.
Turning to `C=C[C@@]1(C)CC[C@@]2(C)[C@@H](CC=C3[C@@H]2CCC[C@]3(C)C(=O)O)C1` [SAGITTINE A], the MIC in assay [1] was over 250 µg/mL; in assay [2], 62.5 µg/mL (≈ 207 µM); in assay [3], 62.5 µg/mL (≈ 207 µM).
For the molecule `C=C[C@@]1(C)CC[C@@]2(C)[C@@H](CC=C3[C@@H]2CCC[C@]3(C)CO[C@@H]2O[C@@H](CO)[C@H](O)[C@H]2O)C1` [SAGITTINE B], the MIC is 250 µg/mL (≈ 594 µM) in assay [1], 125 µg/mL (≈ 297 µM) in assay [2] and 62.5 µg/mL (≈ 149 µM) in assay [3].
As to `C=C[C@@]1(C)CC[C@@]2(C)[C@@H](CC=C3[C@@H]2CCC[C@]3(C)CO[C@@H]2O[C@@H](COC(C)=O)[C@H](O)[C@H]2O)C1` [SAGITTINE C], the MIC worked out at 250 µg/mL (≈ 540 µM) in assay [1], 62.5 µg/mL (≈ 135 µM) in assay [2] and 62.5 µg/mL (≈ 135 µM) in assay [3].
For the molecule `C=C[C@@]1(C)CC[C@@]2(C)[C@@H](CC=C3[C@@H]2CCC[C@]3(C)CO[C@@H]2O[C@@H](CO)[C@H](O)[C@H]2OC(C)=O)C1` [SAGITTINE D], the MIC in assay [1] was 250 µg/mL (≈ 540 µM); in assay [2] it was 125 µg/mL (≈ 270 µM); in assay [3], 125 µg/mL (≈ 270 µM).
`C=C[C@@]1(C)CC[C@@]2(C)[C@@H](CC=C3[C@@H]2CCC[C@]3(C)CO[C@@H]2O[C@@H](COC(C)=O)[C@H](O)[C@H]2OC(C)=O)C1` [SAGITTINE E]: the values for the MIC in assay [1], in assay [2] and in assay [3] were over 250 µg/mL, 62.5 µg/mL (≈ 124 µM) and over 250 µg/mL, respectively.
